Results: patent publication US8399416B2, “Method of using heparin binding motif for treating asthma” (National Tsing Hua University, priority 2008, dated 2013)
Substitutions are numbered along the chain they refer to. No end group written: not given here.

What was measured:
[1] = molecular target: T1, ECP wt (Homo sapiens, UniProt P12724); test: Intrinsic tryptophan fluorescence titration of ECP wt with heparin oligosaccharides; assay type: binding; conditions: read-out: Kd, ECP wt, PBS at 25° C.
T1 construct: His6 (C); made in house; host or cells: E. coli BL21-CodonPlus (DE3)
T1 sequence (P12724 28-160): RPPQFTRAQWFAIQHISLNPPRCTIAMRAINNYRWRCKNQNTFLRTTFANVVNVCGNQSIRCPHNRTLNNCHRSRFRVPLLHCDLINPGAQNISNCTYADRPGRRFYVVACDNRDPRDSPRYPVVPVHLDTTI
Method: (§1) FIG. 5. ITFE profiles of ECP wt and mt1 with dp5. Tryptophan titration emission spectra of […] ECP wt or mt1 bound with dp5. The emission spectra at 340 nm were recorded. The resulting isotherms were fitted by nonlinear regression least-squares computer fit using the KaleidaGraph Synergy Software. ΔF, the relative fluorescence change, equals F0−Fobs, where F0 and Fobs represent the initial and observed fluorescence values, respectively.
(§2) The binding affinities of wild-type and mutant ECP for heparin oligosaccharides were subsequently monitored by intrinsic tryptophan fluorescence titration (Lau, E. K., et al. (2004) The Journal of biological chemistry 279, 22294-22305).
(§3) Binding of ECP to heparin was monitored by changes in intrinsic tryptophan fluorescence emission (IFTE). ECP (200 nM) in PBS at 25° C. was titrated with small aliquots of a high concentration of pentasaccharides with minimal dilution (<2%). Protein fluorescence measurements were recorded 2 min after each addition on a Hitachi 8000 spectrofluorimeter at emission wavelength of 340 nm using an excitation wavelength of 280 nm. ΔF, the relative fluorescence change, equals F0−Fobs, where F0 and Fobs represent the initial and observed fluorescence values, respectively. […]

[2] = molecular target: C1 peptide (Homo sapiens, UniProt P12724); test: Tryptophan fluorescence titration of C1 peptide with heparin oligosaccharides; assay type: binding; conditions: read-out: Kd, C1 peptide; 1 μM peptide; tryptophan fluorescence at 340 nm
Method: FIG. 10. Titration profiles of synthetic peptides by synthetic heparin oligosaccharides. Titrations were carried out on 1 μM peptides in the presence of heparin oligosaccharides. The Kd of each peptide-oligosaccharide interaction was determined by measuring the fluorescence change of intrinsic tryptophan at 340 nm. Data were fitted to a single-binding-site curve using nonlinear least-squares analysis.
as §3

[3] = molecular target: T2, ECP mt1 (Homo sapiens, UniProt P12724, K65A/R61A/R63A/W62A); test: Intrinsic tryptophan fluorescence titration of ECP mt1 with heparin oligosaccharides; assay type: binding; conditions: read-out: Kd, ECP mt1, PBS at 25° C.
T2 construct: recombinant mature ECP was injected into the rat circulation; His6 (C); made in house; host or cells: E. coli BL21-CodonPlus(DE3)
T2 sequence (P12724 28-160 R61A/W62A/R63A/K65A): T1 sequence (P12724 28-160) with R34A, W35A, R36A, K38A
Method: as §1
Amino acid residues R34, W35, R36, and K38 of ECP were simultaneously substituted to alanine using QuickChange site-directed mutagenesis (Stratagene, La Jolla, Calif.) and the resultant mutant was named ECP mt1. […]
as §2
as §3, with “ECP (200 nM) in PBS at 25° C. was titrated with small aliquots of a high concentration of pentasaccharides with minimal dilution (<2%).” left out

[4] = PBS buffer at 25° C.; HMWH 10-20 μM
Method: FIG. 11. Isothermal titration calorimetry of heparin-peptide interaction. The top panels show the differential power time course. Raw data for sequential 6-μl injections of each synthetic peptide in PBS buffer at 25° C. TAT (positive control), B, R1 (negative control), C, C1, and D, D1 into the sample cell containing 1.4 ml HMWH solution (10-20 μM). The total heat released in each injection is proportional to the area under the corresponding peak. […] The solid line represents a non-linear least squares of the reaction heat for the injection.

[5] = AMAC-labeled LMWH, increasing peptide concentrations, room temperature 15 min
Method: FIG. 9. FACE analysis of synthetic peptides. AMAC-labeled LMWH were incubated without or with increasing concentrations of C1, TAT, D1 and R1 peptides at room temperature for 15 min. Samples were loaded and separated by agarose gel electrophoresis as described for FIG. 2.
Synthetic heparin oligosaccharide (FIG. 1) (Lee, C. J., et al. (2004) J Am Chem Soc 126, 476-477), low molecular weight heparin (LMWH) and PI-88 (kindly provided by Progen Inc., Australia) were labeled with 2-aminoacridone (AMAC) as described (Calabro, A., et al. (2000) Glycobiology 10, 273-281). AMAC-oligosaccharide and proteins were incubated at room temperature for 15 min, loaded onto 1% gels and electrophoresed as described (Holmes, O., et al. (2007) J Mol Biol 367, 395-408).
In addition, because EDN contains a conventional heparin binding sequence, the corresponding peptide, D1 (SEQ ID NO: 4), was also synthesized and tested.

[6] = test system: Beas-2B cells; conditions: biotinylated peptides, 1 h at 4° C.
Method: FIG. 7. Synthetic peptides inhibit ECP binding to cells. A, Beas-2B cells were preincubated with peptides in RPMI 1640 medium for 30 min at 4° C. before incubation with MBP-ECP for an additional 1 h. After treatment, the cells were washed with PBS and fixed with PFA. The level of bound MBP-ECP was assessed by ELISA. The amount of MBP-ECP bound to cells without peptide treatment was set to 100%. The data shown are the means of triplicate experiments. B, Beas2-B cells were incubated with biotinylated peptides for 1 h at 4° C. The amount of peptides bound to cells was assessed as for FIG. 3.
To investigate whether the RWRCK (SEQ ID NO: 8) motif is directly responsible for heparin binding, cell ELISA was conducted using a synthetic peptide, C1 (SEQ ID NO: 3), along with a positive control peptide derived from HIV-TAT, TAT (SEQ ID NO: 6) (Vives, E., et al. (1997) The Journal of biological chemistry 272, 16010-16017; Ziegler, A. and Seelig, J. (2004) Biophysical journal 86, 254-263). […] Therefore, synthetic peptides with heparin binding activity may compete with ECP for cellular binding. Furthermore, the cell surface binding ability of peptides was tested using cell ELISA assay.

[7] = test system: peri-bronchiolar and alveolar inflammation; set-up: species or system mice; conditions: mouse, in vivo
Text: FIG. 15. Tissue pathology staining in mice. 5-μm formalin-fixed lung sections were stained with H & E in (A) control (B) mIT, (C) eIN, (D) eIN+mIT, (E) mIT+eIN and (F) eIN+mIT+eIN mice. (G) Peribronchial and alveolar inflammation scores.
Animals Study protocol Female Balb/c mice 8 weeks of age were obtained from the National Laboratory Breeding Research Center in Taiwan and were raised in a specific pathogen-free environment. The mice were divided into six groups: (1) control, (2) mite intra-tracheal (mIT) alone, (3) ECP^32-41 (SEQ ID NO: 9) intranasal, (eIN) alone, (4) pre-treated group: eIN+mIT, (5) post-treated group: mIT+eIN and (6) pre+post-treated group eIN+mIT+eIN. Mite crude extract allergen (1.6 μg/μl) was prepared and well emulsified in complete Freund's adjuvant (CFA; Sigma, St Louis, Mo., USA) at a ratio of 1:1 at 4° C. The mIT, eIN and eIN+mIT groups were immunized subcutaneously with 50 μl emulsified mite protein on day 1 and day 8. […]
Histopathological analysis Lung sections stained with hematoxylin and eosin (H&E) were assigned a unit value for alveolar, peri-bronchiolar and total inflammation by computing the means of three independent scores for three randomly selected view-fields. […] Total inflammatory scores were determined as the sum of the peri-bronchiolar and alveolar inflammatory scores. […]

[8] = test system: ECP binding to Beas-2B cells; test: Competitive inhibition of MBP-ECP binding to Beas-2B cells (cell ELISA); assay type: cell-based, human; conditions: Beas-2B cells preincubated with peptides 30 min at 4° C.
Method: FIG. 3. Heparin oligosaccharides inhibit ECP binding to cells. […] The amount of MBP-ECP bound to cells without GAG treatment was set to 100%. C, control (cells were incubated with MBP.) The data shown are the means of triplicate experiments.
FIG. 7. Synthetic peptides inhibit ECP binding to cells. […] The data shown are the means of triplicate experiments.
Beas-2B, a human bronchial epithelial cell line, was cultured in RPMI 1640 medium (Sigma-Aldrich) supplemented with heat-inactivated 10% fetal bovine serum (Gibco/Invitrogen, Carlsbad, Calif.).
The ability of MBP-ECP to bind cells in the presence of serial dilutions of oligosaccharides or peptides was determined as described (Fan, T. C., et al. (2007) Traffic 8, 1778-1795). At the present invention, synthetic heparins (dp3-9) were tested for their ability to interfere with ECP binding to Beas-2B cells. Briefly, confluent monolayers of Beas-2B cells in 96-well plates were pretreated with various concentrations of oligosaccharides or peptides in serum-free RPMI 1640 medium at 4° C. for 30 min before incubation with 5 μg/ml MBP-ECP at 4° C. for 1 h. The cells were then washed with ice-cold PBS and fixed with 2% PFA at room temperature for 15 min prior to blocking with 2% BSA/PBS at room temperature for 90 min. The level of bound MBP-ECP was quantified by ELISA analysis. MBP-ECP was detected using mouse monoclonal anti-MBP and goat anti-mouse horseradish peroxidase (HRP)-conjugated secondary antibody, followed by the enhanced chemiluminescence detection system. The amount of MBP-ECP bound to cells without oligosaccharide or peptide treatment was set to 100%.

| Compound | Kd [1] [nM] | Kd [2] [nM] | Kd [3] [nM] | heat release on binding to HMWH (ITC) [4] | interaction with LMWH (FACE) [5] | cell surface binding ability of peptides [6] | allergic airway inflammatory pathologies (H&E) [7] | binding of MBP-ECP to cell-surface HS in the presence of peptide [8] |
| --- | --- | --- | --- | --- | --- | --- | --- | --- |
| CO[C@H]1O[C@H](COS(=O)(=O)O)[C@@H](O[C@@H]2O[C@@H](C(=O)O)[C@@H](O[C@H]3O[C@H](COS(=O)(=O)O)[C@@H](O[C@@H]4O[C@@H](C(=O)O)[C@@H](O[C@H]5O[C@H](COS(=O)(=O)O)[C@@H](O[C@@H]6O[C@@H](C(=O)O)[C@@H](O[C@H]7O[C@H](COS(=O)(=O)O)[C@@H](O[C@@H]8O[C@@H](C(=O)O)[C@@H](O[C@H]9O[C@H](COS(=O)(=O)O)[C@@H](O)[C@H](O)[C@H]9NS(=O)(=O)O)[C@H](O)[C@H]8OS(=O)(=O)O)[C@H](O)[C@H]7NS(=O)(=O)O)[C@H](O)[C@H]6OS(=O)(=O)O)[C@H](O)[C@H]5NS(=O)(=O)O)[C@H](O)[C@H]4OS(=O)(=O)O)[C@H](O)[C@H]3NS(=O)(=O)O)[C@H](O)[C@H]2OS(=O)(=O)O)[C@H](O)[C@H]1NS(=O)(=O)O [dp9] | 62.6 | 229 | 400 | – | – | – | – | – |
| MTQGRCKPVNK-biotin [R1] | – | – | – | no heat release | did not bind heparin | devoid of such function | – | – |
| NYRWRCKNQN [ECP^32-41] | – | – | – | – | – | – | did not demonstrate allergic airway inflammatory pathologies | – |
| NYRWRCKNQNK-biotin [C1] | – | – | – | exothermal reaction modes were clearly observed | decreased amount of free AMAC-LMWH signal | bound to the cell surface | – | significantly reduced |
| YGRKKRRQRRRK-biotin [TAT] | – | – | – | significant exothermal reaction mode | decreased amount of free AMAC-LMWH signal | bound to the cell surface | – | significantly reduced |
